Source: article PMC11390765 (Cancer Chemotherapy and Pharmacology, 2024)
Marks after values point to notes of the source that are not given here.

Experiments:
[1] = tested on: advanced solid tumors; assay: Exploratory efficacy (RECIST 1.1, investigator assessment); format: in vivo, human; conditions: capivasertib 400 mg BID 4 days on/3 days off
Method: Efficacy was evaluated as an exploratory endpoint by investigator assessment, and per Response Evaluation Criteria in Solid Tumors (RECIST) version 1.1. Tumor assessments were performed by CT and/or MRI scans at screening and then every 8 weeks (± 7 days; earlier if clinically indicated) for 2 years, and then every 12 weeks until disease progression. Radiographic bone scans were performed at screening and repeated as clinically indicated, depending on tumor type.
Safety analyses were performed on the full analysis set, which consisted of all patients who received at least one dose of midazolam and/or capivasertib, irrespective of protocol adherence or continued participation in the study. Efficacy analyses were also performed on the full analysis set. Summary and/or descriptive statistics were used to analyze baseline demographic, safety, and efficacy data; PFS and DoR were estimated using Kaplan–Meier methodology.

[2] = Plasma pharmacokinetics of capivasertib and its glucuronide metabolite; format: in vivo, human; conditions: for Ctrough cycle 1, day 13: 12 h post day 12 capivasertib evening dose; for Ctrough cycle 1, day 9: after 3 off-capivasertib-dosing days; for tmax: median (range)
[3] = geometric mean (gCV%), listed as Capivasertib

NC1(C(=O)N[C@@H](CCO)c2ccc(Cl)cc2)CCN(c2nc[nH]c3nccc2-3)CC1 [capivasertib]
Median DoR (95% CI) [1]: 3.8 months | patients with confirmed partial response to treatment [1]: Two | CBR (95% CI) at 24 weeks ([1]; full analysis set): 14.3% | ORR (95% CI) ([1]; full analysis set): 9.5% | median PFS (95% CI) ([1]; full analysis set, 15 PFS events): 3.4 months | AUCτ ([2]; geometric mean (gCV%), 12-h dosing interval, day 12 of cycle 1, capivasertib 400 mg BID): 8499 ng·h/mL | Ctrough cycle 1, day 13 ([2]; geometric mean (gCV%)): 281.5 ng/mL | Ctrough cycle 1, day 13 [2, 3]: 281.5^f (53.3) ng/mL | Ctrough cycle 1, day 9 ([2]; geometric mean (gCV%)): 10.96 ng/mL | Ctrough cycle 1, day 9 [2, 3]: 10.96^e (137.0) ng/mL | Cmax ([2]; geometric mean (gCV%), day 12 of cycle 1, 4th day on capivasertib 400 mg BID, with single oral midazolam 1 mg): 1779 ng/mL | t½λz ([2]; geometric mean (gCV%), day 12 of cycle 1, capivasertib 400 mg BID): 3.76 h | CL/F ([2]; geometric mean (gCV%), day 12 of cycle 1, capivasertib 400 mg BID oral): 46.4 L/h | tmax ([2]; day 12 of cycle 1, capivasertib 400 mg BID): 1.5 h | tmax ([2]; day 12 of cycle 1, capivasertib 400 mg BID, listed as Capivasertib): 1.48^a (0.6–5.5) h
